Experimental data: patent publication US20260207560A1, “PLURALITY OF GRANULES” (priority 2022, published 2026)
Values joined by “and” are separate entries in the source; they are usually repeats but may differ in a detail not shown here. Equal entries are not always repeated.

Experiment: Stability of active ingredient in volatile solvents, 20-28 hours at ambient (UPLC assay and impurities)
Conditions: for Assay (as % of nominal): vial replicates
Procedure: Note the incubation for the stability studies were all performed in a similar way: • All were put into 4 mL amber glass vials. • The Initial samples were not analysed as soon as sampled but instead were frozen at −20° C. until the point of analysing the incubated samples (e.g after 28 days at 25, 40 or 50° C.) to avoid degradation of the active ingredient.
Chemical stability was determined by assay (results in Table 8) and quantification of potential active ingredient related substances (shown in
Table 9). […] The objective was to establish whether any active ingredient-related substances might be increasing as a result of the ambient hold.

[1] = 5% SLS aq., Initial, listed as active ingredient
[2] = Ethanol absolute, 24 hour, listed as active ingredient
[3] = Ethanol absolute, Initial, listed as active ingredient
[4] = pH 3 citric acid buffer, 24 hour
[5] = pH 3 citric acid buffer, 24 hour, listed as active ingredient
[6] = pH 3 citric acid buffer, Initial
[7] = pH 3 citric acid buffer, Initial, listed as active ingredient

Compound: CCS(=O)(=O)Nc1ccc2c(c1)nc(C(C)(C)C)n2CC1CCC(F)(F)CC1 [Compound I, N-(2-(tert-butyl)-1-((4,4-difluorocyclohexyl)methyl)-1H-benzimidazol-5-yl)ethanesulfonamide]
- Impurity peak area, Total [1]: 0.96 % of Total and 0.88 % of Total
- Impurity peak area, Total excluding artifact [1]: 0.96 % of Total and 0.88 % of Total
- Assay (as % of nominal) [1]: 105.0 % of nominal and 101.7 % of nominal
- Assay (as % of nominal), Mean (Ethanol Absolute, 24 hours ambient): 99.0 % of nominal
- Assay (as % of nominal) (Ethanol Absolute, 24 hours ambient, listed as active ingredient): 100.2 % of nominal and 97.7 % of nominal
- Assay (as % of nominal) (Ethanol Absolute, Initial): 107.1 % of nominal
- Assay (as % of nominal) (Ethanol Absolute, Initial, listed as active ingredient): 90.6 % of nominal
- Impurity peak area, RRT 0.86^$ (PDA spectra unrelated to the active ingredient) (Ethanol absolute, 24 hour): <0.05 % of Total
- Impurity peak area, RRT 0.92 (Ethanol absolute, 24 hour): <0.05 % of Total
- Impurity peak area, RRT 1.04* (Ethanol absolute, 24 hour): <0.05 % of Total
- Impurity peak area, RRT 1.23* (Ethanol absolute, 24 hour): 0.07 % of Total
- Impurity peak area, RRT 1.24* (Ethanol absolute, 24 hour): <0.05 % of Total
- Impurity peak area, RRT 1.35* (Ethanol absolute, 24 hour): 0.08 % of Total
- Impurity peak area, RRT 1.36* (Ethanol absolute, 24 hour): 0.06 % of Total
- Impurity peak area, RRT 0.84* [2]: 0.33 % of Total and 0.35 % of Total
- Impurity peak area, RRT 0.98* (first row) [2]: 0.22 % of Total and 0.20 % of Total
- Impurity peak area, RRT 0.98* (second row) [2]: 0.13 % of Total and 0.14 % of Total
- Impurity peak area, Total [2]: 0.89 % of Total and 0.90 % of Total
- Impurity peak area, Total excluding artifact [2]: 0.89 % of Total and 0.90 % of Total
- Assay (as % of nominal), Mean (Ethanol absolute, Initial): 98.8 % of nominal
- Impurity peak area, RRT 0.38 (Ethanol absolute, Initial): 0.07 % of Total
- Impurity peak area, RRT 0.61 (Ethanol absolute, Initial): 0.08 % of Total
- Impurity peak area, RRT 0.62 (Ethanol absolute, Initial): 0.09 % of Total
- Impurity peak area, RRT 0.83 (Ethanol absolute, Initial): 0.18 % of Total
- Impurity peak area, RRT 0.92 (Ethanol absolute, Initial): <0.05 % of Total
- Impurity peak area, RRT 0.98* (second row) (Ethanol absolute, Initial): 0.12 % of Total
- Impurity peak area, RRT 1.24* (Ethanol absolute, Initial): <0.05 % of Total
- Impurity peak area, RRT 1.36* (Ethanol absolute, Initial): 0.06 % of Total
- Impurity peak area, RRT 0.84* [3]: 0.37 % of Total and 0.33 % of Total
- Impurity peak area, RRT 0.98* (first row) [3]: 0.20 % of Total and 0.22 % of Total
- Impurity peak area, RRT 1.04* [3]: 0.05 % of Total and <0.05 % of Total
- Impurity peak area, RRT 1.23* [3]: 0.08 % of Total and 0.07 % of Total
- Impurity peak area, RRT 1.35* [3]: 0.08 % of Total and 0.09 % of Total
- Impurity peak area, Total [3]: 0.96 % of Total and 1.47 % of Total
- Impurity peak area, Total excluding artifact [3]: 0.96 % of Total and 0.89 % of Total
- Degradation of the active ingredient (four volatile solvents, 20-28 hour hold at ambient temperature): no evidence for any active ingredient degradation
- Total impurities, highest in any case (four volatile solvents, initial and 20-28 hour ambient hold): ≤ 1.17 % of the total peak area
- Impurity peak area, RRT 0.92 [4]: 0.06 % of Total
- Impurity peak area, RRT 1.04* [4]: 0.09 % of Total
- Impurity peak area, RRT 1.23* [4]: 0.10 % of Total
- Impurity peak area, RRT 0.38 [5]: 0.26 % of Total and 0.14 % of Total
- Impurity peak area, RRT 0.61 [5]: 0.07 % of Total and 0.10 % of Total
- Impurity peak area, RRT 0.62 [5]: 0.07 % of Total and 0.11 % of Total
- Impurity peak area, RRT 0.83 [5]: 0.30 % of Total and 0.16 % of Total
- Impurity peak area, RRT 0.84* [5]: 0.30 % of Total and 0.37 % of Total
- Impurity peak area, RRT 0.98* (first row) [5]: 0.22 % of Total and 0.21 % of Total
- Impurity peak area, RRT 0.98* (second row) [5]: 0.13 % of Total and 0.14 % of Total
- Impurity peak area, RRT 1.24* [5]: <0.05 % of Total and 0.06 % of Total
- Impurity peak area, Total [5]: 1.88 % of Total and 1.82 % of Total
- Impurity peak area, Total excluding artifact [5]: 0.90 % of Total and 1.03 % of Total
- Assay (as % of nominal), Mean (pH 3 citric acid buffer, 24 hours ambient): 95.8 % of nominal
- Assay (as % of nominal) (pH 3 citric acid buffer, 24 hours ambient, listed as active ingredient): 109.6 % of nominal and 82.1 % of nominal
- Assay (as % of nominal), Mean [6]: 109.6 % of nominal
- Impurity peak area, RRT 0.38 [6]: 0.27 % of Total
- Impurity peak area, RRT 0.41 [6]: 0.26 % of Total
- Impurity peak area, RRT 0.61 [6]: 0.05 % of Total
- Impurity peak area, RRT 0.62 [6]: 0.06 % of Total
- Impurity peak area, RRT 0.83 [6]: 0.21 % of Total
- Impurity peak area, RRT 0.86^$ (PDA spectra unrelated to the active ingredient) [6]: <0.05 % of Total
- Impurity peak area, RRT 1.04* [6]: 0.09 % of Total
- Impurity peak area, RRT 1.24* [6]: <0.05 % of Total
- Impurity peak area, RRT 0.92 [7]: 0.10 % of Total and 0.09 % of Total
- Impurity peak area, RRT 0.98* (first row) [7]: 0.23 % of Total and 0.21 % of Total
- Impurity peak area, RRT 0.98* (second row) [7]: 0.11 % of Total and 0.13 % of Total
- Impurity peak area, RRT 1.23* [7]: 0.16 % of Total and 0.12 % of Total
- Impurity peak area, Total [7]: 1.79 % of Total and 0.97 % of Total
- Impurity peak area, Total excluding artifact [7]: 0.94 % of Total and 0.97 % of Total
- Assay (as % of nominal) [7]: 108.8 % of nominal and 110.4 % of nominal
